In ChEMBL document CHEMBL2062407, “Synthesis of N²-modified 7-methylguanosine 5'-monophosphates as nematode translation inhibitors” (Bioorg Med Chem, 2012):

System: not listed separately
Assay: Inhibition of Ascaris suum eIF4E-3 assessed as inhibition of cap-dependent translation after 1 hr by cell-free Renilla luciferase reporter gene assay

**Q.** For `CCN(CC)c1nc2c(c(=O)[nH]1)[n+](C)cn2[C@@H]1O[C@H](COP(=O)([O-])O)[C@@H](O)[C@H]1O`, which IC50 is on record?
**A.** Its IC50 is greater than 50 µM.

**Q.** For `C[n+]1cn([C@@H]2O[C@H](COP(=O)([O-])O)[C@@H](O)[C@H]2O)c2nc(NCC3CCCCC3)[nH]c(=O)c21`, which IC50 is on record?
**A.** The IC50 was 5.7 µM.

**Q.** With `CC(C)CNc1nc2c(c(=O)[nH]1)[n+](C)cn2[C@@H]1O[C@H](COP(=O)([O-])O)[C@@H](O)[C@H]1O` as the compound, how does the IC50 read?
**A.** Its IC50 is 4.5 µM.

**Q.** For `C[n+]1cn([C@@H]2O[C@H](COP(=O)([O-])OP(=O)(O)OP(=O)(O)O)[C@@H](O)[C@H]2O)c2nc(N)[nH]c(=O)c21`, which IC50 is on record?
**A.** The IC50 was 6.1 µM.

**Q.** Which IC50 does the source give for `C[n+]1cn([C@@H]2O[C@H](COP(=O)([O-])O)[C@@H](O)[C@H]2O)c2nc(N(Cc3ccccc3)Cc3ccccc3)[nH]c(=O)c21` here?
**A.** Its IC50 is greater than 50 µM.

**Q.** Which IC50 does the source give for `CCN(C)c1nc2c(c(=O)[nH]1)[n+](C)cn2[C@@H]1O[C@H](COP(=O)([O-])O)[C@@H](O)[C@H]1O` here?
**A.** The IC50 was 13.9 µM.

**Q.** For `CCCCNc1nc2c(c(=O)[nH]1)[n+](C)cn2[C@@H]1O[C@H](COP(=O)([O-])O)[C@@H](O)[C@H]1O`, which IC50 is on record?
**A.** Its IC50 is 3.9 µM.

**Q.** With `CCCCN(C)c1nc2c(c(=O)[nH]1)[n+](C)cn2[C@@H]1O[C@H](COP(=O)([O-])O)[C@@H](O)[C@H]1O` as the compound, how does the IC50 read?
**A.** Its IC50 is greater than 50 µM.

**Q.** For `C[n+]1cn([C@@H]2O[C@H](COP(=O)([O-])O)[C@@H](O)[C@H]2O)c2nc(NCc3ccc(-c4ccccc4)cc3)[nH]c(=O)c21`, which IC50 is on record?
**A.** The IC50 was 4.3 µM.

**Q.** For `C[n+]1cn([C@@H]2O[C@H](COP(=O)([O-])O)[C@@H](O)[C@H]2O)c2nc(N)[nH]c(=O)c21`, which IC50 is on record?
**A.** The IC50 was greater than 50 µM.

**Q.** With `CN(Cc1ccccc1)c1nc2c(c(=O)[nH]1)[n+](C)cn2[C@@H]1O[C@H](COP(=O)([O-])O)[C@@H](O)[C@H]1O` as the compound, how does the IC50 read?
**A.** The IC50 was greater than 50 µM.

**Q.** Which IC50 does the source give for `C[n+]1cn([C@@H]2O[C@H](COP(=O)([O-])O)[C@@H](O)[C@H]2O)c2nc(NCc3ccc(Cl)cc3)[nH]c(=O)c21` here?
**A.** Its IC50 is 3.8 µM.

**Q.** For `C[n+]1cn([C@@H]2O[C@H](COP(=O)([O-])O)[C@@H](O)[C@H]2O)c2nc(NCc3ccccc3)[nH]c(=O)c21`, which IC50 is on record?
**A.** The IC50 was 2.9 µM.

**Q.** For `CC(C)CN(C)c1nc2c(c(=O)[nH]1)[n+](C)cn2[C@@H]1O[C@H](COP(=O)([O-])O)[C@@H](O)[C@H]1O`, which IC50 is on record?
**A.** The IC50 was greater than 50 µM.

**Q.** For `C[n+]1cn([C@@H]2O[C@H](COP(=O)([O-])O)[C@@H](O)[C@H]2O)c2nc(NCc3ccc([N+](=O)[O-])cc3)[nH]c(=O)c21`, which IC50 is on record?
**A.** The IC50 was 12.6 µM.

**Q.** Which IC50 does the source give for `COc1ccc(CNc2nc3c(c(=O)[nH]2)[n+](C)cn3[C@@H]2O[C@H](COP(=O)([O-])O)[C@@H](O)[C@H]2O)cc1` here?
**A.** The IC50 was 0.9 µM.

System: Ascaris suum
Assay: Ratio of m7GTP IC50 to compound IC50 for Ascaris suum eIF4E-3 assessed as inhibition of cap-dependent translation after 1 hr by cell-free Renilla luciferase reporter gene assay

**Q.** Which Ratio IC50 does the source give for `COc1ccc(CNc2nc3c(c(=O)[nH]2)[n+](C)cn3[C@@H]2O[C@H](COP(=O)([O-])O)[C@@H](O)[C@H]2O)cc1` here?
**A.** The Ratio IC50 was 7.
